{"source": "paper PMC6651024", "about": "“LIR Motif-Containing Hyperdisulfide β-Ginkgotide is Cytoprotective, Adaptogenic, and Scaffold-Ready” (Molecules, 2019)", "key": {"[1]": {"test": "Thermal stability by far-UV circular dichroism spectroscopy", "format": "physicochemical", "conditions": "heating up to 90 °C (20, 55, 90 °C); 42 µM peptide in sodium phosphate buffer pH 7.5; 190-260 nm", "experimental": "The secondary structure and thermal stability of the synthetic β-gB1 were assessed using circular dichroism (CD) spectroscopy. The far-UV CD data of β-gB1 were acquired at 20 °C, and secondary structure composition was predicted using the CDSSTR algorithm with a normalized root mean square deviation (RMSD) value of 0.021. The CD spectroscopy spectra agreed with the predicted secondary structure of folded β-gB1, which consists 28% strands, 16% turns, 1% helices, and 55% unordered structures (Figure 1A). The spectrum is in strike contrast with that of the S-reduced β-gB1, which is devoid of a secondary structure (Figure 1A).\nFar-UV CD spectra were recorded for the synthetic and folded β-ginkgotide β-gB1 (42 µM) in a sodium phosphate buffer (pH 7.5) on a Chirascan™ CD spectrometer (Applied Photophysics, Leatherhead, UK) equipped with a temperature controller. Spectra were acquired between 190 and 260 nm from 20 to 90 °C using a 1 mm path-length quartz cuvette, a 1 nm spectral bandwidth, and a 1 nm step size. CD spectroscopy data were analyzed for secondary structure content using CDSSTR [23]. CD data were expressed as mean residue ellipticity (in deg cm^2dmol^−1)."}, "[2]": {"system": "LC3B", "test": "Western blot of autophagy marker LC3B (LC3B-I, LC3B-II) in SH-SY5Y cells", "format": "cell-based, human", "conditions": "triplicates", "experimental": "(§1) The LIR-containing proteins regulate autophagosome formation by interacting with the protein Atg8 (autophagy-related gene, Atg) family through their LIR sequences. […] The SH-SY5Y cells were cultured with or without β-gB1. The autophagy markers, Beclin-1 (BECN1), LC3B-I, and LC3B-II, were identified and quantified by western blot analysis. Beclin-1 plays an important role in regulating both autophagy and cell death, whereas LC3B is an important component of the autophagy pathway and the most widely used marker for autophagosomes. Two of the processed LC3B protein are LC3B-I and LC3B-II. LC3B-I is a truncated LC3B. In contrast, LC3B-II is a truncated and lipidated version of LC3B-I [28, 29]. Importantly, LC3B-II is centrally involved in the events of autophagosome membrane expansion and fusion.\n(§2) Rat cardio-myoblast cells (H9c2) and […] neuron-like SH-SY5Y cells were purchased from ATCC and maintained in DMEM (Dulbecco’s modified eagle medium) medium supplemented with 10% fetal bovine serum (FBS), 10,000 U/mL of penicillin, and 10,000 µg/mL of streptomycin at 37 °C, 5% CO2.\n(§3) A 25 µg equivalent quantity of each protein samples were resolved on a 10% and 15% SDS-PAGE gel accordingly and transferred onto a nitrocellulose membrane. Immunoblotting was performed using anti-protein antibodies against glyceraldehyde 3-phosphate dehydrogenase (GAPDH) (1:5000), LC3B (1:1500), Beclin-1 (1:1500), Caspase-3 (1:1500), and Caspase-9 (1:1500). Blots were developed with Clarity Max Western ECL blotting substrates. Protein bands were quantitated densitometrically using ImageJ software (ImageJ15.0b, Wayen Rasband, NIH, Bethesda, Maryland, USA), expressed relative to GAPDH, and normalized to the vehicle control cells. Statistical calculations and bar graphs were done using GraphPad Prism software (Version 6.01), and three individual experimental data sets were used for the calculation. Data are presented as means ± SD and compared by the Holm–Sidak multiple t-tests method. P-values pf less than 0.05 were considered significant."}, "[3]": {"system": "Beclin-1 (BECN1)", "test": "Western blot of autophagy marker Beclin-1 in SH-SY5Y cells", "format": "cell-based, human", "conditions": "western blot densitometry relative to GAPDH, normalized to vehicle control, mean, triplicates", "experimental": "as §1, with “fusion. […]” for “fusion.”\nA 25 µg equivalent quantity of each protein samples were resolved on a 10% and 15% SDS-PAGE gel accordingly and transferred onto a nitrocellulose membrane. […] Protein bands were quantitated densitometrically using ImageJ software (ImageJ15.0b, Wayen Rasband, NIH, Bethesda, Maryland, USA), expressed relative to GAPDH, and normalized to the vehicle control cells. […]"}, "[4]": {"system": "caspase-3", "test": "Western blot of caspase-3 in SH-SY5Y cells", "format": "cell-based, human", "conditions": "triplicates", "experimental": "In contrast, the β-gB1-treated cells increased the expression of the LC3B-II isoform by 2.8-fold. […] In addition, the β-gB1-treated cells increased the BECN1 expression by 1.5-fold (Figure 2A,B).\nas §2\nas §3, with “P-values pf less than 0.05 were considered significant.” left out"}, "[5]": {"system": "H9c2 cells", "test": "Hypoxia-reoxygenation injury, MTT assay, H9c2", "format": "cell-based, rat", "conditions": "H9c2, 1 µM peptide, 24 h hypoxia then 24 h normoxia, triplicates", "experimental": "Cells were cultured with or without β-gB1 and its S-alkylated β-gB1, first under the hypoxic condition for 24 h and then at a normal oxygen environment for another 24 h. The cell viability under hypoxia-reoxygenation condition was assessed by the MTT assay.\nas §2\nCells were seeded in a cell culture medium with/without β-gB1 and incubated at 37 °C, 5% CO2 overnight. The next day, the cells were locked inside a BD GasPak EZ anaerobe pouch system (BD Diagnostics, MD) and incubated at 37 °C for the next 48 h for the hypoxia condition. In addition, the cells were cultured under a normal oxygenated environment for the normoxic control. In hypoxia-reoxygenation experiments, the cells were incubated for 24 h in hypoxic conditions before being incubated for another 24 h under normoxia.\nPhosphate-buffered saline (PBS) was used as a vehicle control."}, "[6]": {"system": "H9c2 cells", "test": "LDH release cytotoxicity assay, H9c2", "format": "cell-based, rat", "conditions": "H9c2, 10 µM peptide, 48 h, 37 °C; LDH kit, 450 nm; triplicates", "source_text": "In addition, β-gB1 is non-toxic to Vero and BHK (baby hamster kidney) cell lines based on an MTT assay. […] LDH is a cytoplasmic enzyme which is rapidly released into the cell culture medium upon plasma membrane damage and is widely used as a marker for cytotoxicity. Thus, an LDH-release assay measures the level of plasma membrane damage to a cell population.\nas §2\nAn LDH release assay was performed using the CytoSelect™ LDH cytotoxicity assay kit (CBA-241, Cell Biolabs, Inc., San Diego, CA, USA). In brief, cells were cultured in DMEM with or without 10 µM of β-gB1 and S-alkylated β-gB1 (β-gB1Alk) for 48 h at 37 °C and 5% CO2. PBS was used for the vehicle control experiment. The culture medium was transferred and mixed with the LDH assay reagent in a ratio of 9:1. The reaction mixture was incubated at 37 °C for 2 h, and colorimetric quantification was performed using a 450 nm wavelength. The assay was performed in experimental triplicates, and statistical calculations and bar graphs were done using GraphPad Prism software (Version 6.01). […]"}, "[7]": {"system": "Escherichia coli", "conditions": "concentrations up to 100 µM; cited from earlier work"}, "[8]": {"system": "Candida albicans", "conditions": "concentrations up to 100 µM; cited from earlier work"}}, "note": "Where a SMILES comes first, the peptide text is derived from it.", "data": [{"compound": "CC[C@H](C)[C@@H]1NC(=O)[C@@H]2CSSC[C@H](NC(=O)CNC(=O)[C@@H](NC(=O)[C@H](CCC(=O)O)NC(=O)[C@@H](N)Cc3ccc(O)cc3)[C@@H](C)O)C(=O)N[C@@H](CCCCN)C(=O)N[C@@H](CCCNC(=N)N)C(=O)N[C@H]3CSSC[C@@H](C(=O)O)NC(=O)[C@H](CSSC[C@H](NC3=O)C(=O)N[C@@H](Cc3ccc(O)cc3)C(=O)N[C@@H](CC(C)C)C(=O)N[C@@H](CC(=O)O)C(=O)N[C@@H](CCC(=O)O)C(=O)N[C@@H](Cc3ccc(O)cc3)C(=O)NCC(=O)N2)NC(=O)[C@H](CCCNC(=N)N)NC1=O", "note": "[β-gB1] (HELM PEPTIDE1{Y.E.T.G.C.K.R.C.C.Y.L.D.E.Y.G.C.I.R.C.C}$PEPTIDE1,PEPTIDE1,5:R3-16:R3|PEPTIDE1,PEPTIDE1,8:R3-20:R3|PEPTIDE1,PEPTIDE1,9:R3-19:R3$$$V2.0; N-terminus and C-terminus assumed)", "values": [{"measurement": "Effect of heating on far-UV CD spectrum (thermal denaturation)", "setting": "[1]", "value": "did not alter its CD spectrum"}, {"measurement": "Increase of LC3B-II/LC3B-I ratio compared to control", "setting": "[2]; western blot band intensity", "value": "about 3 fold"}, {"measurement": "Increase of expression of LC3B-II isoform vs control", "setting": "[2]; western blot densitometry relative to GAPDH, normalized to vehicle control, mean", "value": 2.8, "unit": "fold"}, {"measurement": "Expression of LC3B-I isoform vs control", "setting": "[2]; western blot densitometry relative to GAPDH, normalized to vehicle control", "value": "did not alter the expression"}, {"measurement": "Increase of BECN1 expression vs control", "setting": "[3]", "value": 1.5, "unit": "fold"}, {"measurement": "Expression of caspase-3 in treated cells", "setting": "[4]", "value": "remained unchanged"}, {"measurement": "Increase of cell survivability under hypoxia-reoxygenation", "setting": "[5]", "value": 24, "unit": "%"}, {"measurement": "Cytotoxicity / cell-membrane damage by LDH release", "setting": "[6]", "value": "no significant cytotoxicity or cell-membrane damaging effects"}, {"measurement": "Antimicrobial effect", "setting": "[7]", "value": "does not exhibit an antimicrobial effect"}, {"measurement": "Antimicrobial effect", "setting": "[8]", "value": "does not exhibit an antimicrobial effect"}]}]}
